# Test results reported in patent US20060281755A1, “SYNERGISTIC MODULATION OF FLT3 KINASE USING AMINOPYRIMIDINES KINASE MODULATORS” (priority 2005, published 2006).
# Like-named read-outs stand apart in the source and are kept apart here.
# Key:
# [1] = system: Baf3-FLT3 cells; experiment: 72-hour cell proliferation assay and combination index analysis, Baf3-FLT3; type: cell-based, murine; details: with single sub-IC50 dose of FLT3 inhibitor Compound A (100 nM)
# Method: (§1) Dose responses for the individual compounds alone were determined for each cell line using a standard 72-hour cell proliferation assay (see FIGS. 6.1-6.8). […] Each of these chemically distinct compounds alone has potential for the treatment of disorders related to FLT3, such as FLT3 positive AML. […] The FLT3 inhibitors tested had no effect on THP-1 proliferation. […] (See FIGS. 10.1-10.8 and Tables 1-3, hereafter.)
# (§2) To statistically evaluate the synergy of a FLT3 inhibitor and an FTI in FLT3 dependent cell lines, dosing combinations were evaluated by the method of Chou and Talalay. See Chou T C, Talalay P. (1984) “Quantitative analysis of dose-effect relationships: the combined effects of multiple drugs or enzyme inhibitors.” Adv Enzyme Regul. 22:27-55. Using this method inhibitors are added simultaneously to cells in a ratio of the IC50 dose of each compound alone. […] Using this method, multiple FTI and FLT3 combinations were evaluated. […]
# (§3) Combination Index Analysis. To determine growth inhibition synergy of a FTI and FLT3 inhibitor combination based on the method of Chou and Talalay (Chou and Talalay. See Chou T C, Talalay P. (1984) “Quantitative analysis of dose-effect relationships: the combined effects of multiple drugs or enzyme inhibitors.” Adv Enzyme Regul. 22:27-55.), fixed ratio combination dosing with isobolar statistical analysis was performed. […]
# [2] = system: Baf3-ITD cells; experiment: 72-hour cell proliferation assay and combination index analysis, Baf3-ITD; type: cell-based, murine; details: with single sub-IC50 dose of FLT3 inhibitor Compound A (50 nM)
# Method: as §1, §2, §3
# [3] = either agent alone or in combination
# Method: Mice were dosed orally by gavage with vehicle (control group) or compound at various doses twice-daily (b.i.d.) during the week and once-daily (q.d.) on weekends. Dosing was continued for 11 consecutive days, depending on the kinetics of tumor growth and size of tumors in vehicle-treated control mice. If tumors in the control mice reached 10% of body weight (˜2.0 grams), the study was to be terminated. […] During the study, tumor growth was measured three times-a-week (M, W, F) using electronic Vernier calipers. Tumor volume (mm^3) was calculated using the formula […], where L=length (mm) and W=width (shortest distance in mm) of the tumor. […] Mice were closely examined daily at each dose for overt clinical signs of adverse, drug-related side effects. […]
# If tumors in the control mice reached ˜10% of body weight (˜2.0 grams), the study was to be terminated. […] During the study, tumor growth was measured three times-a-week (M, W, F) using electronic Vernier calipers. […] Body weight was measured three times-a-week and a loss of body weight >10% was used as an indication of lack of compound tolerability. […]
# Dosing was continued for sixteen consecutive days. Tumor growth was measured three times-a-week (Monday, Wednesday, Friday) using electronic Vernier calipers. Body weight was measured three times-a-week and a loss of body weight >10% was used as an indication of lack of compound tolerability.
# [4] = system: MV4-11 AML cells; experiment: 72-hour cell proliferation assay and combination index analysis, MV4-11; type: cell-based, human; details: with single sub-IC50 dose of FLT3 inhibitor Compound A (50 nM)
smiles,measurement,setting,value
"Cn1cncc1C(N)(c1ccc(Cl)cc1)c1ccc2c(c1)c(-c1cccc(Cl)c1)cc(=O)n2C (single isomer, unassigned; (+)) [Tipifarnib, (+)-6-[amino(4-chlorophenyl)(1-methyl-1H-imidazol-5-yl)methyl]-4-(3-chlorophenyl)-1-methyl-2(1H)-quinolinone]",increase in potency of Tipifarnib,[1],more than 3 fold
same,increase in potency of Tipifarnib,[2],more than 3 fold
same,overt toxicity,[3]; 9-day treatment,No overt toxicity
same,overt toxicity,[3]; 16-day treatment,No overt toxicity
same,increase in potency of Tipifarnib,[4],more than 3 fold
